The values that follow are results of earlier work, collected in patent US5164490A, “Pneumocystis carinii dihydrofolate reductase gene and methods for its use” (The Regents of the University of California, priority 1989, dated 1992).

The data set concerns P. carinii. The note with it: trimethoprim alone.

As to `COc1cc(Cc2cnc(N)nc2N)cc(OC)c1OC` [trimethoprim], the “efficacy in the rat model of P. carinii infection” value is on record as “lack of efficacy”.
